Measured values reported in US20100016209A1, “Methods of Reducing Side Effects in Cancer Therapy” (priority 2005, published 2010).

What was measured:
[1] = tested on: patient with metastasized cancer of the "small saliva gland"
Procedure: (A) A patient of was a physician in the radiation department. They were diagnosed to have cancer of the “small saliva gland” in 1996. After radiation therapy, the tumor was removed by surgery. In 2001 it was discovered that the tumor had metastasized to their left lung and they went through a second surgery in the lung. In December of 2004, the metastasis extended into the chest, diaphragm and bone and multiple sites in the lung. They were treated with regional radiation and “immuno-therapy”. Starting in the middle of December, they were given MEK intravenously (IV) at a dose of 30 μg/kg bodyweight three times per week for one month. In the next month, they were given one administration of MEK each week at 40 μg/kg. Thereafter, one injection was done for each month at 120 μg/kg for the next 5 months.

[2] = tested on: white blood cells of kidney cancer patient; experiment: Clinical case (B): chemotherapy with a platinum compound and MEK, white blood cells analyzed by cell sorter; assay type: in vivo, human; conditions: A person; for Total T (CD3+), Percent: kidney cancer, normal 59.4-84.6; for Total T (CD3+), Percent / T Helper (CD3+, CD4+), Cell Number/μl / T Suppressor (CD3+, CD8+), Cell Number/μl / Total B (CD19+), Cell Number/μl / Total NK (CD16+/CD56+), Cell Number/μl / Total T (CD3+), Cell Number/μl / Ratio T Helper Cells/ CD3, CD4/CD3, CD8 / Total NK (CD16+/CD56+), Percent / Total B (CD19+), Percent / T Suppressor (CD3+, CD8+), Percent / T Helper (CD3+, CD4+), Percent / Lymphocytes T + B + NK, Percent: platinum compound + MEK; for Ratio T Helper Cells/ CD3, CD4/CD3, CD8: normal 0.9-3.6; for Total NK (CD16+/CD56+), Percent: normal 5.6-40.9; for Total B (CD19+), Percent: normal 6.4-22.6; for T Suppressor (CD3+, CD8+), Percent: normal 11.1-38.3; for T Helper (CD3+, CD4+), Percent: normal 28.5-60.5; for Lymphocytes T + B + NK, Percent: normal 95.0-105.0
Procedure: (B) A patient was diagnosed with a kidney cancer and was treated with chemotherapy with a platinum compound and MEK for about two months (July and August 2005). […] a person's white blood cells after analyzed by the cell sorter are presented as follows: […]

patients' immune cells = experiment: Clinical (C): MEK therapy in a group of 19 cancer patients, analysis of patients' immune cells (FACS Calibur); assay type: in vivo, human; conditions: for Total NK (CD16+CD56) Natural killer cells, Cells/μl / Total T Cells, Cells/μl / CD4/CD3(CD8) / Total NK (CD16+CD56) Natural killer cells, in percent of total / Total T Cells, in percent of total / Total Lymphocytes (T+B+NK), in percent of total: average of 19 patients; for Total NK (CD16+CD56) Natural killer cells, Cells/μl / Total T Cells, in percent of total: before MEK 61; for Total T Cells, Cells/μl: before MEK 367; for CD4/CD3(CD8): normal 0.9-3.6, before MEK 0.61; for Total NK (CD16+CD56) Natural killer cells, in percent of total: normal 5.6-30.9, before MEK 16; for Total T Cells, in percent of total: normal range 59.5-84.6; for Total Lymphocytes (T+B+NK), in percent of total: normal range 95.0-105.0, before MEK 87
Procedure: (C) Therapy in group of patients: (1) Total patient number: 19 (2) Cancer category: colon cancer—8; ovary cancer—5; lung cancer—4; salivary gland cancer—1; stomach cancer—1. 12 patients were given MEK 3 weeks after chemotherapy; the other 7 patients were not treated with chemotherapy. (3) Schedule of MEK administration: First week—10˜30 μg/kg, daily IV (total 7 administrations per week); Second week—20˜40 μg/kg, ever other day IV (total 3 administrations per week); Third week—30˜50 μg/kg, once every three days, IV (total 2 administrations per week). (4) Thereafter, one administration each month, 100˜130 μg/kg for 6 months. (5) Observation Indicator: analysis of patients' immune cells. (6) Equipment used: Cytometer—FACS Calibur; Software—Simul Set V3.1. (7) Results (in average values):
In the above data, “after MEK” refers to after the end of MEK treatment.

Methionine enkephalin [MEK]
progress of the tumor ([1]; CT and MRI examination): slowed and partially disappeared
appetite and sleep ([1]; after the therapy): improved
blood pressure, pulse and liver and stomach functions ([1]; after the therapy): normal
influenza infection ([1]; during the influenza epidemic, hospital ward): not infected
side effects in the GI, respiratory, skin, and peripheral circulation systems ([1]; during therapy with radiation, chemo, and MEK): no side effects
white blood cell counts and lymphocytes ([1]; during therapy with radiation, chemo, and MEK, MEK IV 30-120 μg/kg): decreased to some extent
CD3/CD4 sub-group of T lymphocytes ([1]; monitored monthly): increased
CD3/CD8 and total CD3 subgroups ([1]; monitored monthly): decreased
total numbers of NK cells ([1]; monitored monthly): increased
Total T (CD3+), Percent ([2]; Aug 12): 74%
Total T (CD3+), Percent ([2]; Jul 14): 70%
T Helper (CD3+, CD4+), Cell Number/μl ([2]; Aug 12): 447 Cell Number/μl
T Suppressor (CD3+, CD8+), Cell Number/μl ([2]; Aug 12): 931 Cell Number/μl
Total B (CD19+), Cell Number/μl ([2]; Aug 12): 74 Cell Number/μl
Total NK (CD16+/CD56+), Cell Number/μl ([2]; Aug 12): 447 Cell Number/μl
Total T (CD3+), Cell Number/μl ([2]; Aug 12): 1368 Cell Number/μl
Ratio T Helper Cells/ CD3, CD4/CD3, CD8 ([2]; Aug 12): 0.48
Total NK (CD16+/CD56+), Percent ([2]; Aug 12): 24%
Total B (CD19+), Percent ([2]; Aug 12): 4%
T Suppressor (CD3+, CD8+), Percent ([2]; Aug 12): 50%
T Helper (CD3+, CD4+), Percent ([2]; Aug 12): 24%
Lymphocytes T + B + NK, Percent ([2]; Aug 12): 102%
T Helper (CD3+, CD4+), Cell Number/μl ([2]; Jul 14): 569 Cell Number/μl
T Suppressor (CD3+, CD8+), Cell Number/μl ([2]; Jul 14): 1274 Cell Number/μl
Total B (CD19+), Cell Number/μl ([2]; Jul 14): 54 Cell Number/μl
Total NK (CD16+/CD56+), Cell Number/μl ([2]; Jul 14): 759 Cell Number/μl
Total T (CD3+), Cell Number/μl ([2]; Jul 14): 1897 Cell Number/μl
Ratio T Helper Cells/ CD3, CD4/CD3, CD8 ([2]; Jul 14): 0.45
Total NK (CD16+/CD56+), Percent ([2]; Jul 14): 28%
Total B (CD19+), Percent ([2]; Jul 14): 2%
T Suppressor (CD3+, CD8+), Percent ([2]; Jul 14): 47%
T Helper (CD3+, CD4+), Percent ([2]; Jul 14): 21%
Lymphocytes T + B + NK, Percent ([2]; Jul 14): 100%
Numbers of T cell sub-types ([2]; platinum compound and MEK for about two months): did not decrease but increased instead
side effects among the patients treated (patients' immune cells; MEK as supplemental agent with chemo and/or radiation therapies): helped to eliminate or reduce the extent of many side effects
Total NK (CD16+CD56) Natural killer cells, Cells/μl (patients' immune cells; 1 month after MEK): 177 Cells/μl
Total T Cells, Cells/μl (patients' immune cells; 1 month after MEK): 655 Cells/μl
CD4/CD3(CD8) (patients' immune cells; 1 month after MEK): 0
Total NK (CD16+CD56) Natural killer cells, in percent of total (patients' immune cells; 1 month after MEK): 22% of total
Total T Cells, in percent of total (patients' immune cells; 1 month after MEK): 60% of total
Total Lymphocytes (T+B+NK), in percent of total (patients' immune cells; 1 month after MEK): 102% of total
Total NK (CD16+CD56) Natural killer cells, Cells/μl (patients' immune cells; 2 months after MEK): 189 Cells/μl
Total T Cells, Cells/μl (patients' immune cells; 2 months after MEK): 587 Cells/μl
CD4/CD3(CD8) (patients' immune cells; 2 months after MEK): 1.62
Total NK (CD16+CD56) Natural killer cells, in percent of total (patients' immune cells; 2 months after MEK): 21% of total
Total T Cells, in percent of total (patients' immune cells; 2 months after MEK): 66% of total
Total Lymphocytes (T+B+NK), in percent of total (patients' immune cells; 2 months after MEK): 100% of total
Total NK (CD16+CD56) Natural killer cells, Cells/μl (patients' immune cells; 3 months after MEK): 306 Cells/μl
Total T Cells, Cells/μl (patients' immune cells; 3 months after MEK): 539 Cells/μl
CD4/CD3(CD8) (patients' immune cells; 3 months after MEK): 1.51
Total NK (CD16+CD56) Natural killer cells, in percent of total (patients' immune cells; 3 months after MEK): 29% of total
Total T Cells, in percent of total (patients' immune cells; 3 months after MEK): 67% of total
Total Lymphocytes (T+B+NK), in percent of total (patients' immune cells; 3 months after MEK): 104% of total
Total NK (CD16+CD56) Natural killer cells, Cells/μl (patients' immune cells; 4 months after MEK): 349 Cells/μl
Total T Cells, Cells/μl (patients' immune cells; 4 months after MEK): 694 Cells/μl
CD4/CD3(CD8) (patients' immune cells; 4 months after MEK): 1.53
Total NK (CD16+CD56) Natural killer cells, in percent of total (patients' immune cells; 4 months after MEK): 26% of total
Total T Cells, in percent of total (patients' immune cells; 4 months after MEK): 79% of total
Total Lymphocytes (T+B+NK), in percent of total (patients' immune cells; 4 months after MEK): 103% of total
Total NK (CD16+CD56) Natural killer cells, Cells/μl (patients' immune cells; 5 months after MEK): 368 Cells/μl
Total T Cells, Cells/μl (patients' immune cells; 5 months after MEK): 637 Cells/μl
CD4/CD3(CD8) (patients' immune cells; 5 months after MEK): 1.80
Total NK (CD16+CD56) Natural killer cells, in percent of total (patients' immune cells; 5 months after MEK): 25% of total
Total T Cells, in percent of total (patients' immune cells; 5 months after MEK): 73% of total
Total Lymphocytes (T+B+NK), in percent of total (patients' immune cells; 5 months after MEK): 102% of total
Total NK (CD16+CD56) Natural killer cells, Cells/μl (patients' immune cells; 6 months after MEK): 359 Cells/μl
Total T Cells, Cells/μl (patients' immune cells; 6 months after MEK): 568 Cells/μl
CD4/CD3(CD8) (patients' immune cells; 6 months after MEK): 1.61
Total NK (CD16+CD56) Natural killer cells, in percent of total (patients' immune cells; 6 months after MEK): 27% of total
Total T Cells, in percent of total (patients' immune cells; 6 months after MEK): 80% of total
Total Lymphocytes (T+B+NK), in percent of total (patients' immune cells; 6 months after MEK): 103% of total
CD4/CD3(CD8), NK (CD16+CD56), and total T cells (patients' immune cells; cancer patients, MEK in conjunction with chemo and/or radiation therapies, after one month of MEK administration): either were maintained normally or increased
